{
  "source": "patent US10544153B2",
  "about": "“Benzoic acid, benzoic acid derivatives and heteroaryl carboxylic acid conjugates of oxycodone, prodrugs, methods of making and use thereof” (KemPharm, Inc., priority 2014, dated 2020)",
  "data": [
    {"test": "Oral PK in rats: plasma concentrations of released oxycodone by LC-MS/MS", "conditions": "conjugate equivalent to 2 mg/kg freebase oxycodone", "units": {"AUC": "ng·h/mL", "Cmax": "ng/mL", "tmax": "min"}, "values": [
      {"compound": "COc1ccc2c3c1O[C@H]1C(OC(=O)c4cccc(N)c4)=CC[C@@]4(O)[C@@H](C2)N(C)CC[C@]314", "note": "[Conjugate 3-ABz-OC]", "AUC": 52.9, "Cmax": 45.5, "tmax": 33},
      {"compound": "COc1ccc(C(=O)OC2=CC[C@@]3(O)[C@H]4Cc5ccc(OC)c6c5[C@@]3(CCN4C)[C@H]2O6)cc1", "note": "[Conjugate 4-MeO-Bz-OC]", "AUC": 55.5, "Cmax": 28.5, "tmax": 15}
    ]},
    {"test": "Oral PK in rats: plasma concentrations of released oxycodone by LC-MS/MS", "conditions": "relative to oxycodone (OC)", "units": {"%-AUC of OC": "%", "%-Cmax of OC": "%", "%-tmax of OC": "%"}, "values": [
      {"compound": "COc1ccc2c3c1O[C@H]1C(OC(=O)c4cccc(N)c4)=CC[C@@]4(O)[C@@H](C2)N(C)CC[C@]314", "note": "[Conjugate 3-ABz-OC]", "%-AUC of OC": 83, "%-Cmax of OC": 96, "%-tmax of OC": 122},
      {"compound": "COc1ccc(C(=O)OC2=CC[C@@]3(O)[C@H]4Cc5ccc(OC)c6c5[C@@]3(CCN4C)[C@H]2O6)cc1", "note": "[Conjugate 4-MeO-Bz-OC]", "%-AUC of OC": 59, "%-Cmax of OC": 61, "%-tmax of OC": 33}
    ]},
    {"test": "Tamper resistance: percent of OC released under tampering conditions, LC-MS/MS", "type": "physicochemical", "conditions": "1N HCl, RT, 1 hour", "protocol": "(§1) Effective abuse deterrent forms of drugs of abuse can also be resistant to chemical tampering. The prodrugs in the present technology also impart this characteristic. Several common tampering scenarios were employed and percent of OC released were determined by liquid chromatography with tandem mass spectrometry (LC-MS/MS). The results as shown in Table 7 indicated a very high degree of tamper resistance in the example OC prodrugs, releasing little to no OC.", "units": {"percent of OC released": "%"}, "values": [
      {"compound": "COc1cc(C(=O)OC2=CC[C@@]3(O)[C@H]4Cc5ccc(OC)c6c5[C@@]3(CCN4C)[C@H]2O6)ccc1O", "note": "[4-OH-3-MeO-Bz-OC]", "percent of OC released": 0},
      {"compound": "COc1ccc2c3c1O[C@H]1C(OC(=O)c4cccc(N)c4)=CC[C@@]4(OC(=O)c5cccc(N)c5)[C@@H](C2)N(C)CC[C@]314", "note": "[(3-ABz)2-OC]", "percent of OC released": 0},
      {"compound": "COc1ccc2c3c1O[C@H]1C(OC(=O)c4cccc(O)c4)=CC[C@@]4(OC(=O)c5cccc(O)c5)[C@@H](C2)N(C)CC[C@]314", "note": "[(3-OH-Bz)2-OC]", "percent of OC released": 0},
      {"compound": "COc1ccc2c3c1O[C@H]1C(OC(=O)c4cccc(N)c4)=CC[C@@]4(O)[C@@H](C2)N(C)CC[C@]314", "note": "[Conjugate 3-ABz-OC]", "percent of OC released": "<1"},
      {"compound": "COc1ccc(C(=O)OC2=CC[C@@]3(O)[C@H]4Cc5ccc(OC)c6c5[C@@]3(CCN4C)[C@H]2O6)cc1", "note": "[Conjugate 4-MeO-Bz-OC]", "percent of OC released": "<1"}
    ]},
    {"test": "Tamper resistance: percent of OC released under tampering conditions, LC-MS/MS", "type": "physicochemical", "conditions": "5% Bicarbonate, RT, 1 hour", "protocol": "as §1", "units": {"percent of OC released": "%"}, "values": [
      {"compound": "COc1cc(C(=O)OC2=CC[C@@]3(O)[C@H]4Cc5ccc(OC)c6c5[C@@]3(CCN4C)[C@H]2O6)ccc1O", "note": "[4-OH-3-MeO-Bz-OC]", "percent of OC released": 0},
      {"compound": "COc1ccc2c3c1O[C@H]1C(OC(=O)c4cccc(N)c4)=CC[C@@]4(OC(=O)c5cccc(N)c5)[C@@H](C2)N(C)CC[C@]314", "note": "[(3-ABz)2-OC]", "percent of OC released": 0},
      {"compound": "COc1ccc2c3c1O[C@H]1C(OC(=O)c4cccc(O)c4)=CC[C@@]4(OC(=O)c5cccc(O)c5)[C@@H](C2)N(C)CC[C@]314", "note": "[(3-OH-Bz)2-OC]", "percent of OC released": 0},
      {"compound": "COc1ccc2c3c1O[C@H]1C(OC(=O)c4cccc(N)c4)=CC[C@@]4(O)[C@@H](C2)N(C)CC[C@]314", "note": "[Conjugate 3-ABz-OC]", "percent of OC released": "<1"},
      {"compound": "COc1ccc(C(=O)OC2=CC[C@@]3(O)[C@H]4Cc5ccc(OC)c6c5[C@@]3(CCN4C)[C@H]2O6)cc1", "note": "[Conjugate 4-MeO-Bz-OC]", "percent of OC released": "<1"}
    ]},
    {"test": "Tamper resistance: percent of OC released under tampering conditions, LC-MS/MS", "type": "physicochemical", "conditions": "Water, RT, 1 hour", "protocol": "as §1", "units": {"percent of OC released": "%"}, "values": [
      {"compound": "COc1cc(C(=O)OC2=CC[C@@]3(O)[C@H]4Cc5ccc(OC)c6c5[C@@]3(CCN4C)[C@H]2O6)ccc1O", "note": "[4-OH-3-MeO-Bz-OC]", "percent of OC released": 0},
      {"compound": "COc1ccc2c3c1O[C@H]1C(OC(=O)c4cccc(N)c4)=CC[C@@]4(OC(=O)c5cccc(N)c5)[C@@H](C2)N(C)CC[C@]314", "note": "[(3-ABz)2-OC]", "percent of OC released": 0},
      {"compound": "COc1ccc2c3c1O[C@H]1C(OC(=O)c4cccc(O)c4)=CC[C@@]4(OC(=O)c5cccc(O)c5)[C@@H](C2)N(C)CC[C@]314", "note": "[(3-OH-Bz)2-OC]", "percent of OC released": 0},
      {"compound": "COc1ccc2c3c1O[C@H]1C(OC(=O)c4cccc(N)c4)=CC[C@@]4(O)[C@@H](C2)N(C)CC[C@]314", "note": "[Conjugate 3-ABz-OC]", "percent of OC released": 0},
      {"compound": "COc1ccc(C(=O)OC2=CC[C@@]3(O)[C@H]4Cc5ccc(OC)c6c5[C@@]3(CCN4C)[C@H]2O6)cc1", "note": "[Conjugate 4-MeO-Bz-OC]", "percent of OC released": 0}
    ]},
    {"test": "Tamper resistance: percent of OC released under tampering conditions, LC-MS/MS", "type": "physicochemical", "conditions": "Water, RT, 24 hours", "protocol": "as §1", "units": {"percent of OC released": "%"}, "values": [
      {"compound": "COc1cc(C(=O)OC2=CC[C@@]3(O)[C@H]4Cc5ccc(OC)c6c5[C@@]3(CCN4C)[C@H]2O6)ccc1O", "note": "[4-OH-3-MeO-Bz-OC]", "percent of OC released": 0},
      {"compound": "COc1ccc2c3c1O[C@H]1C(OC(=O)c4cccc(N)c4)=CC[C@@]4(OC(=O)c5cccc(N)c5)[C@@H](C2)N(C)CC[C@]314", "note": "[(3-ABz)2-OC]", "percent of OC released": 0},
      {"compound": "COc1ccc2c3c1O[C@H]1C(OC(=O)c4cccc(O)c4)=CC[C@@]4(OC(=O)c5cccc(O)c5)[C@@H](C2)N(C)CC[C@]314", "note": "[(3-OH-Bz)2-OC]", "percent of OC released": 0},
      {"compound": "COc1ccc2c3c1O[C@H]1C(OC(=O)c4cccc(N)c4)=CC[C@@]4(O)[C@@H](C2)N(C)CC[C@]314", "note": "[Conjugate 3-ABz-OC]", "percent of OC released": 0},
      {"compound": "COc1ccc(C(=O)OC2=CC[C@@]3(O)[C@H]4Cc5ccc(OC)c6c5[C@@]3(CCN4C)[C@H]2O6)cc1", "note": "[Conjugate 4-MeO-Bz-OC]", "percent of OC released": "<1"}
    ]},
    {"test": "Intranasal PK in rats: plasma concentrations of released oxymorphone by LC-MS/MS", "conditions": "Table 6, equivalent to 2 mg/kg freebase oxycodone", "units": {"AUC": "ng·h/mL", "Cmax": "ng/mL", "tmax": "min"}, "values": [
      {"compound": "COc1ccc(C(=O)OC2=CC[C@@]3(O)[C@H]4Cc5ccc(OC)c6c5[C@@]3(CCN4C)[C@H]2O6)cc1", "note": "[Conjugate 4-MeO-Bz-OC]", "AUC": 7.2, "Cmax": 9.4, "tmax": 22}
    ]},
    {"test": "Intranasal PK in rats: plasma concentrations of released oxymorphone by LC-MS/MS", "conditions": "Table 6, relative to oxycodone (OC)", "units": {"%-AUC of OC": "%", "%-Cmax of OC": "%", "%-tmax of OC": "%"}, "values": [
      {"compound": "COc1ccc(C(=O)OC2=CC[C@@]3(O)[C@H]4Cc5ccc(OC)c6c5[C@@]3(CCN4C)[C@H]2O6)cc1", "note": "[Conjugate 4-MeO-Bz-OC]", "%-AUC of OC": 65, "%-Cmax of OC": 60, "%-tmax of OC": 105}
    ]},
    {"test": "Oral PK in rats: plasma concentrations of oxymorphone by LC-MS/MS", "conditions": "oxymorphone released, conjugate equivalent to 2 mg/kg freebase oxycodone", "units": {"AUC": "ng·h/mL", "Cmax": "ng/mL", "tmax": "min"}, "values": [
      {"compound": "COc1ccc2c3c1O[C@H]1C(OC(=O)c4cccc(N)c4)=CC[C@@]4(O)[C@@H](C2)N(C)CC[C@]314", "note": "[Conjugate 3-ABz-OC]", "AUC": 3.6, "Cmax": 2.0, "tmax": 26.4},
      {"compound": "COc1ccc(C(=O)OC2=CC[C@@]3(O)[C@H]4Cc5ccc(OC)c6c5[C@@]3(CCN4C)[C@H]2O6)cc1", "note": "[Conjugate 4-MeO-Bz-OC]", "AUC": 6.7, "Cmax": 4.7, "tmax": 15}
    ]},
    {"test": "Oral PK in rats: plasma concentrations of oxymorphone by LC-MS/MS", "conditions": "oxymorphone released, relative to oxycodone (OC)", "units": {"%-AUC of OC": "%", "%-Cmax of OC": "%", "%-tmax of OC": "%"}, "values": [
      {"compound": "COc1ccc2c3c1O[C@H]1C(OC(=O)c4cccc(N)c4)=CC[C@@]4(O)[C@@H](C2)N(C)CC[C@]314", "note": "[Conjugate 3-ABz-OC]", "%-AUC of OC": 69, "%-Cmax of OC": 49, "%-tmax of OC": 97},
      {"compound": "COc1ccc(C(=O)OC2=CC[C@@]3(O)[C@H]4Cc5ccc(OC)c6c5[C@@]3(CCN4C)[C@H]2O6)cc1", "note": "[Conjugate 4-MeO-Bz-OC]", "%-AUC of OC": 51, "%-Cmax of OC": 63, "%-tmax of OC": 83}
    ]},
    {"test": "Intranasal PK in rats (Table 4)", "conditions": "title: oxymorphone released (released oxycodone), equivalent to 2 mg/kg freebase oxycodone", "units": {"Cmax": "ng/mL", "tmax": "min"}, "values": [
      {"compound": "COc1ccc(C(=O)OC2=CC[C@@]3(O)[C@H]4Cc5ccc(OC)c6c5[C@@]3(CCN4C)[C@H]2O6)cc1", "note": "[Conjugate 4-MeO-Bz-OC]", "Cmax": 949.4, "tmax": 4.98}
    ]},
    {"test": "Intranasal PK in rats (Table 4)", "conditions": "title: oxymorphone released (released oxycodone), relative to oxycodone (OC)", "units": {"%-Cmax of OC": "%", "%-tmax of OC": "%"}, "values": [
      {"compound": "COc1ccc(C(=O)OC2=CC[C@@]3(O)[C@H]4Cc5ccc(OC)c6c5[C@@]3(CCN4C)[C@H]2O6)cc1", "note": "[Conjugate 4-MeO-Bz-OC]", "%-Cmax of OC": 48, "%-tmax of OC": 100}
    ]}
  ]
}
